One may read the IC50 as the point on the concentration scale where inhibition reaches its midpoint.

The test system of assay [1] is T-cell. Nature of the assay: CD25 cell surface staining on T-cells co-stimulated with anti-CD3 and anti-CD28 antibody (Biological Example 2). The format is cell-based, human. To be noted: Homo sapiens, T-cell, fold change over baseline (anti-CD3/anti-CD28 stimulated T-cells without inhibitor), read-out: CD25 staining Anti-CD3/Anti-CD28 stimulation; for fold induction at 0.3 µM: 0.3 μM Cbl-b inhibitor; for fold induction at 1 µM: 1 μM Cbl-b inhibitor. In short, it runs like this:
(§1)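 Values are fold-change over baseline: readings (IL-2 release, CD25 staining) from inhibitor-treated T-cells divided against untreated cells […]. No detailed procedure stated.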

Assay [2] deals with T1, Cbl-b (Homo sapiens, UniProt Q13191). The assay can be described thus: Cbl-b inhibition assay (Cbl-b activity assay, FRET, Biological Example 1; 100 mM NaCl, 60 nM Src kinase). The format is biochemical. As to conditions: upper bound stated in text lists; read-out: IC50 values in the Cbl-b inhibition assay of Biological Example 1. The method in brief:
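Here, the E2 UbcH5B, irreversibly linked to Bodipy-fluorescein ubiquitin, binds Cbl-b once Src kinase phosphorylates it; Cbl-b carries an N-terminal biotinylated Avi-tag captured by streptavidin-terbium. An absent FRET signal indicates inhibition.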

Assay [3] has as its system T-cell. Nature of the assay: CD25 cell surface staining on T-cells stimulated with anti-CD3 antibody alone (Biological Example 2). It is filed as cell-based, human. To be noted: Homo sapiens, T-cell; 1 μM Cbl-b inhibitor; fold change over baseline (anti-CD3/anti-CD28 stimulated T-cells without inhibitor); read-out: CD25 staining Anti-CD3 stimulation.
For assay [4], the system named is T-cell. The assay can be described thus: IL-2 secretion from T-cells stimulated with anti-CD3 antibody alone (Biological Example 2). The format is cell-based, human. As to conditions: Homo sapiens, T-cell; 1 μM Cbl-b inhibitor; fold change over baseline (anti-CD3/anti-CD28 stimulated T-cells without inhibitor); read-out: IL-2 secretion Anti-CD3 stimulation.
For assay [5], the target named is T1, Cbl-b. The assay can be described thus: Cbl-b activity assay (Cbl-b inhibition assay), TR-FRET of Cbl-b interaction with UbcH5B-Ub. It is filed as biochemical. As to conditions: assay buffer with 100 mM NaCl, 60 nM Src kinase; read-out: Cbl-b activity IC50. The method in brief:
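Compound-treated Cbl-b was incubated 1.5 h with Src kinase (60 nM final; 30 nM for asterisked values, which also used 50 mM instead of 100 mM NaCl), 1 mM ATP and 5 mM MgCl2. Binding to fluorescent Ub-loaded UbcH5B (C85K mutant) was then read by TR-FRET after 1 h more.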
In general terms: Time-resolved FRET reads energy transfer from a long-lived donor to a nearby acceptor.

In assay [6] the test system is T-cell. The assay can be described thus: IL-2 secretion from T-cells co-stimulated with anti-CD3 and anti-CD28 antibody (Biological Example 2). It is filed as cell-based, human. As to conditions: Homo sapiens, T-cell, fold change over baseline (anti-CD3/anti-CD28 stimulated T-cells without inhibitor), read-out: IL-2 secretion Anti-CD3/Anti-CD28 stimulation; for fold induction at 0.3 µM: 0.3 μM Cbl-b inhibitor; for fold induction at 1 µM: 1 μM Cbl-b inhibitor. In short, it runs like this:
as §1

T1 sequence (Q13191 36-427): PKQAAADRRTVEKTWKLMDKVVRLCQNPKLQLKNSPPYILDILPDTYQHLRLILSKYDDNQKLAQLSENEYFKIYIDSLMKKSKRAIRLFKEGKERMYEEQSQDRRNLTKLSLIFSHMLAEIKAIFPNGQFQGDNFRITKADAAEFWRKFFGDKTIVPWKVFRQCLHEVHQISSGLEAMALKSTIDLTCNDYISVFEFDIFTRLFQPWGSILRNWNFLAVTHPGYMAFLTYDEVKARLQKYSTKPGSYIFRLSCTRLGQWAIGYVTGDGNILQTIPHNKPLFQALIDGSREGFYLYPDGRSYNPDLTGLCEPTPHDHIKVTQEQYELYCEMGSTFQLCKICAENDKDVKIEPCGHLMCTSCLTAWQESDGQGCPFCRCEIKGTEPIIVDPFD

Regarding `Cn1cnnc1CC1(c2cccc(N3Cc4c(cc(N5CC(C(F)(F)F)C5)cc4C(F)(F)F)C3=O)c2)COC1` [Example 600, 2-(3-(3-((4-methyl-4H-1,2,4-triazol-3-yl)methyl)oxetan-3-yl)phenyl)-4-(trifluoromethyl)-6-(3-(trifluoromethyl)azetidin-1-yl)isoindolin-1-one], the fold induction at 0.3 µM was 1.01 to 1.3 with T-cell [1] and 2.51 to 5 with T-cell [6]. Moreover, the fold induction at 1 µM in the assay with T-cell [1] was 1.01 to 1.3; with T-cell [3] it was above 1; in the assay on T-cell [4], 0.051 to 0.1; with T-cell [6], above 7.5. Further, the half-maximal inhibitory concentration (IC50) at Cbl-b [2] is at most 100 nM; at Cbl-b [5], below 100 nM.

Take `Cn1cnnc1CC1(c2cccc(N3Cc4c(cc(N5CCC(C(F)F)C5)cc4C(F)(F)F)C3=O)c2)COC1` (stereo not drawn) [Example 601, 6-(3-(difluoromethyl)pyrrolidin-1-yl)-2-(3-(3-((4-methyl-4H-1,2,4-triazol-3-yl)methyl)oxetan-3-yl)phenyl)-4-(trifluoromethyl)isoindolin-1-one]: the results for the fold induction at 0.3 µM in the assay with T-cell [1] and with T-cell [6] were 1.01 to 1.3 and 1.01 to 2.5, respectively. For the same compound, the fold induction at 1 µM in the assay on T-cell [1] was 1.01 to 1.3; in the assay with T-cell [3], 0.601 to 0.8; with T-cell [4], below 0.05; in the assay with T-cell [6], 2.51 to 5. Moreover, the IC50 was at most 100 nM on Cbl-b [2] and below 100 nM on Cbl-b [5].

Regarding `Cn1cnnc1CC1(c2cccc(N3Cc4c(cc(N5CC6(C5)CC(F)(F)C6)cc4C(F)(F)F)C3=O)c2)COC1` [Example 602, 6-(6,6-difluoro-2-azaspiro[3.3]heptan-2-yl)-2-(3-(3-((4-methyl-4H-1,2,4-triazol-3-yl)methyl)oxetan-3-yl)phenyl)-4-(trifluoromethyl)isoindolin-1-one], the values for the fold induction at 0.3 µM with T-cell [1] and in the assay with T-cell [6] were 1.01 to 1.3 and 5 to 7.5, respectively. Also, the fold induction at 1 µM was 1.31 to 1.5 in the assay on T-cell [1], above 1 in the assay on T-cell [3], 0.101 to 0.15 in the assay with T-cell [4] and above 7.5 with T-cell [6]. Further, the IC50 at Cbl-b [2] is at most 100 nM; at Cbl-b [5], below 100 nM.

`Cn1cnnc1CC1(c2cccc(N3Cc4c(cc(N5CC6(CCC6(F)F)C5)cc4C(F)(F)F)C3=O)c2)COC1` [Example 603, 6-(5,5-difluoro-2-azaspiro[3.3]heptan-2-yl)-2-(3-(3-((4-methyl-4H-1,2,4-triazol-3-yl)methyl)oxetan-3-yl)phenyl)-4-(trifluoromethyl)isoindolin-1-one]: the fold induction at 0.3 µM in the assay on T-cell [1] lay in the range of 1.01 to 1.3; in the assay on T-cell [6], 1.01 to 2.5. In addition, the fold induction at 1 µM in the assay on T-cell [1] was 1.01 to 1.3; with T-cell [3] it was 0.601 to 0.8; with T-cell [4], below 0.05; with T-cell [6] it was 2.51 to 5. The IC50 at Cbl-b [2] is at most 100 nM; at Cbl-b [5] it was below 100 nM.

As for `Cn1cnnc1CC1(c2cccc(NC(=O)c3cc(C4CC4)nc4ccnn34)c2)COC1` [Example 604, 5-cyclopropyl-N-(3-(3-((4-methyl-4H-1,2,4-triazol-3-yl)methyl)oxetan-3-yl)phenyl)pyrazolo[1,5-a]pyrimidine-7-carboxamide], the fold induction at 0.3 µM in the assay on T-cell [1] is 1.01 to 1.3; in the assay with T-cell [6] it was 1.01 to 2.5. Also, the fold induction at 1 µM in the assay on T-cell [1] is 1.01 to 1.3; in the assay on T-cell [3], 0.601 to 0.8; with T-cell [4] it was below 0.05; in the assay on T-cell [6] it was 2.51 to 5. The IC50 was at most 100 nM on Cbl-b [2] and below 100 nM at Cbl-b [5].

As to `Cn1cnnc1CC1(c2cccc(NC(=O)c3ccnc4ccnn34)c2)COC1` [Example 605, N-(3-(3-((4-methyl-4H-1,2,4-triazol-3-yl)methyl)oxetan-3-yl)phenyl)pyrazolo[1,5-a]pyrimidine-7-carboxamide], the fold induction at 0.3 µM was 1.01 to 1.3 with T-cell [1] and 1.01 to 2.5 in the assay with T-cell [6]. Also, the fold induction at 1 µM in the assay on T-cell [1] was 1.01 to 1.3; with T-cell [3] it was 0.601 to 0.8; with T-cell [4], below 0.05; in the assay with T-cell [6], 2.51 to 5. Moreover, the values for the IC50 at Cbl-b [2] and on Cbl-b [5] were at most 300 nM and 100 to 300 nM, respectively.

Take `Cc1cc(C(=O)Nc2cccc(C3(Cc4nncn4C)COC3)c2)n2ncc(C)c2n1` [Example 606, 3,5-dimethyl-N-(3-(3-((4-methyl-4H-1,2,4-triazol-3-yl)methyl)oxetan-3-yl)phenyl)pyrazolo[1,5-a]pyrimidine-7-carboxamide]: the fold induction at 0.3 µM with T-cell [1] fell in the range of 1.01 to 1.3; with T-cell [6] it was 2.51 to 5. Moreover, the fold induction at 1 µM with T-cell [1] was 1.01 to 1.3; in the assay with T-cell [3] it was 0.801 to 1; in the assay with T-cell [4], 0.051 to 0.1; with T-cell [6], 2.51 to 5. Moreover, the IC50 on Cbl-b [2] was at most 100 nM; on Cbl-b [5], below 100 nM.

For `CC1CN(c2cc3c(c(C(F)(F)F)c2)CN(c2cccc(C4(Cc5nncn5C)COC4)c2)C3=O)C1` [Example 607, 2-(3-(3-((4-methyl-4H-1,2,4-triazol-3-yl)methyl)oxetan-3-yl)phenyl)-6-(3-methylazetidin-1-yl)-4-(trifluoromethyl)isoindolin-1-one], the values for the fold induction at 0.3 µM in the assay on T-cell [1] and with T-cell [6] were 1.01 to 1.3 and 1.01 to 2.5, respectively. Besides, the fold induction at 1 µM lay in the range of 1.01 to 1.3 in the assay with T-cell [1], 0.601 to 0.8 with T-cell [3], 0.101 to 0.15 in the assay with T-cell [4] and 2.51 to 5 in the assay on T-cell [6]. For the same compound, the values for the half-inhibitory concentration (IC50) on Cbl-b [2] and on Cbl-b [5] were at most 100 nM and below 100 nM, respectively.

As to `CC1CN(c2cc3c(c(C(F)(F)F)c2)CN(c2cccc(C4(Cc5nncn5C)COC4)c2)C3=O)C1C` (stereo not drawn) [Example 608, 6-(2,3-dimethylazetidin-1-yl)-2-(3-(3-((4-methyl-4H-1,2,4-triazol-3-yl)methyl)oxetan-3-yl)phenyl)-4-(trifluoromethyl)isoindolin-1-one], the fold induction at 0.3 µM with T-cell [1] is 1.01 to 1.3; with T-cell [6], 1.01 to 2.5. The fold induction at 1 µM in the assay on T-cell [1] was 1.01 to 1.3; in the assay on T-cell [3], 0.601 to 0.8; in the assay on T-cell [4], 0.051 to 0.1; in the assay with T-cell [6] it was 2.51 to 5. Also, the IC50 on Cbl-b [2] is at most 100 nM; on Cbl-b [5] it was below 100 nM.

As for `Cn1cnnc1CC1(c2cccc(N3Cc4c(cc(N5CC(C(F)F)C5)nc4C4CC4)C3=O)c2)COC1` [Example 609, 4-cyclopropyl-6-(3-(difluoromethyl)azetidin-1-yl)-2-(3-(3-((4-methyl-4H-1,2,4-triazol-3-yl)methyl)oxetan-3-yl)phenyl)-2,3-dihydro-1H-pyrrolo[3,4-c]pyridin-1-one], the fold induction at 0.3 µM with T-cell [1] is 1.01 to 1.3; with T-cell [6] it was 2.51 to 5. In addition, the fold induction at 1 µM was 1.01 to 1.3 with T-cell [1], 0.801 to 1 in the assay on T-cell [3], 0.101 to 0.15 with T-cell [4] and 5 to 7.5 with T-cell [6]. Moreover, the IC50 at Cbl-b [2] is at most 100 nM; on Cbl-b [5], below 100 nM.

Regarding `Cn1cnnc1CC1(c2cccc(NC(=O)c3cc(N4CC(C(F)F)C4)nc(C4CC4)n3)c2)COC1` [Example 610, 2-cyclopropyl-6-(3-(difluoromethyl)azetidin-1-yl)-N-(3-(3-((4-methyl-4H-1,2,4-triazol-3-yl)methyl)oxetan-3-yl)phenyl)pyrimidine-4-carboxamide], the fold induction at 0.3 µM with T-cell [1] was in the range of 1.01 to 1.3; with T-cell [6], 2.51 to 5. Besides, the fold induction at 1 µM in the assay with T-cell [1] was 1.01 to 1.3; with T-cell [3], 0.801 to 1; with T-cell [4], 0.101 to 0.15; in the assay with T-cell [6], above 7.5. Besides, the IC50 was at most 100 nM on Cbl-b [2] and below 100 nM at Cbl-b [5].

Turning to `Cn1cnnc1CC1(c2cccc(N3Cc4c(cc(C5CCC5)cc4C(F)(F)F)C3=O)c2)COC1` [Example 611, 6-cyclobutyl-2-(3-(3-((4-methyl-4H-1,2,4-triazol-3-yl)methyl)oxetan-3-yl)phenyl)-4-(trifluoromethyl)isoindolin-1-one], the results for the fold induction at 0.3 µM with T-cell [1] and in the assay on T-cell [6] were 1.01 to 1.3 and 2.51 to 5, respectively. For the same compound, the fold induction at 1 µM in the assay on T-cell [1] was in the range of 1.31 to 1.5; with T-cell [3], 0.801 to 1; in the assay with T-cell [4], 0.101 to 0.15; in the assay with T-cell [6] it was 2.51 to 5. Moreover, the half-maximal inhibitory concentration (IC50) at Cbl-b [2] is at most 100 nM; at Cbl-b [5] it was below 100 nM.

The values above are taken from US20220324835A1 (Nurix Therapeutics, Inc., priority 2018, published 2022).
